Measurements from article PMC7365463, “Oxfendazole mediates macrofilaricidal efficacy against the filarial nematode Litomosoides sigmodontis in vivo and inhibits Onchocerca spec. motility in vitro” (PLoS Neglected Tropical Diseases, 2020).
Read-outs that look alike come from different tables or passages of the source.

Assays:
[1] = system: L. sigmodontis microfilariae; test: L. sigmodontis microfilariae-injected naïve mice; assay type: in vivo, Litomosoides sigmodontis; conditions: single intraperitoneal injection 5 mg/kg
Procedure: To investigate the in vivo efficacy of oxfendazole on microfilariae, microfilariae were isolated from peripheral blood of L. sigmodontis-infected cotton rats according to Chandrashekar et al. (1984) using a sucrose percoll gradient. 100,000 microfilariae were injected into the tail vein of naïve mice as previously described. Microfilariae-injected mice were treated with a commercial formulation of oxfendazole (Dolthene) twice daily with 2 x 12.5 mg/kg per os. As a positive control, additional mice were treated with a single intraperitoneal dose of ivermectin (5 mg/kg) in DMSO/PEG400/H20dest with a ratio of 1:7:2 according to Halliday et al.. Control animals received no treatment.

[2] = system: Brugia pahangi; set-up: method as in Reddy 1983 (Ref. 15); conditions: L3 (SC), Mastomys natalensis, patent phase, necropsy 43 days p.t., ref Reddy 1983 (Ref. 15), cited from earlier work
[3] = system: Litomosoides sigmodontis; set-up: method as in Shibuya 1979 (Ref. 12); conditions: cotton rat, ref Shibuya 1979 (Ref. 12), cited from earlier work
[4] = system: Brugia pahangi; conditions: jirds, cited from earlier work
[5] = system: Breinlia booliati; set-up: method as in Mak 1981 (Ref. 7); conditions: 100L3 (SC), rats, SC 10mg/kg 5 cons. days, patent phase, necropsy 4 weeks p.t.; ref Mak 1981 (Ref. 7); cited from earlier work
[6] = system: Litomosoides sigmodontis; set-up: method as in Reddy 1983 (Ref. 15); conditions: L3 (mite), Mastomys natalensis, patent phase, necropsy 43 days p.t., ref Reddy 1983 (Ref. 15), cited from earlier work
[7] = system: Onchocerca gutturosa adult male worms; test: O. gutturosa adult male worm 5-day motility assay; conditions: for activity against adult O. gutturosa: metabolites of oxfendazole, less potent compared to oxfendazole
[8] = system: Onchocerca gutturosa adult male worms; test: O. gutturosa adult worm MTT/formazan viability assay; conditions: 120 h
[9] = system: Brugia pahangi; conditions: L3, cats, patent phase, necropsy 42 days p.t., ref Denham 1980 (Ref. 5), cited from earlier work
[10] = system: Brugia pahangi; set-up: method as in Devaney 1985 (Ref. 8); conditions: 50L3, balb/c, SC 10 or 50 mg/kg 5 cons. days, 4 days p.i., necropsy 3-4 weeks p.t.; ref Devaney 1985 (Ref. 8); cited from earlier work
[11] = system: Onchocerca lienalis microfilariae; test: O. lienalis microfilariae 5-day motility assay; conditions: 120 h

ivermectin
microfilaremia ([1]; by 6 h after treatment): statistically significant reduction of microfilaremia | microfilaremia ([1]; from day four after treatment until end of experiment): microfilariae negative

COC(=O)Nc1nc2ccc(C(=O)c3ccccc3)cc2[nH]1 [meb, mebendazole]
Reduction of worm burden ([2]; SC 100mg/kg 5 cons. days): 100% | Reduction of worm burden ([2]; per os 150mg/kg 5 cons. days): 0% | Reduction of worm burden ([3]; IP 1mg/kg 3 cons.days, patent phase, necropsy 4 weeks p.t.): 50% | Reduction of worm burden ([3]; IP 10mg/kg 3 cons.days, patent phase, necropsy 4 weeks p.t.): 100% | Reduction of worm burden ([3]; IP 100mg/kg x1, patent phase, necropsy 4 weeks p.t.): 100% | Reduction of worm burden ([3]; IT 0.1mg/kg 3 cons.days, patent phase, necropsy 5 weeks p.t.): 0% | Reduction of worm burden ([3]; IT 1mg/kg 3 cons.days, patent phase, necropsy 5 weeks p.t.): 100% | Reduction of worm burden ([3]; IT 10mg/kg 3 cons.days, patent phase, necropsy 3 weeks p.t.): 20% | Reduction of worm burden ([3]; IT 10mg/kg 3 cons.days, patent phase, necropsy 5 weeks p.t.): 100% | Reduction of worm burden ([3]; IT 10mg/kg 4 cons.days, patent phase, necropsy 4 weeks p.t.): 0% | Reduction of worm burden ([3]; IT 25mg/kg x1, patent phase, necropsy 5 weeks p.t.): 75% | Reduction of worm burden ([3]; IT 100mg/kg x1, patent phase, necropsy 5 weeks p.t.): 85% | Reduction of worm burden ([4]; 15Ad (IP), SC 25-12,5mg/kg 5 cons. days, 4 days p.i., necropsy 5 weeks p.t., ref Surin 1990 (Ref. 11)): 100% | Reduction of worm burden ([4]; 50L3 (IP), SC 25mg/kg 5 cons. days, 70 days p.i., necropsy 5 weeks p.t., ref Surin 1990 (Ref. 11)): 97% | Reduction of worm burden ([4]; 50L3 (IP), SC 12,5mg/kg 5 cons. days, 70 days p.i., necropsy 5 weeks p.t., ref Surin 1990 (Ref. 11)): 78.5% | Reduction of worm burden ([4]; 100L3 (IP), SC 50mg/kg 5 cons.days, 3 months p.i., necropsy 15 days p.t., ref Denham 1978 (Ref. 3)): 70% | Reduction of worm burden ([4]; 100L3 (IP), SC 50mg/kg 5 cons.days, 3 months p.i., necropsy 20 days p.t., ref Denham 1978 (Ref. 3)): 100% | Reduction of worm burden ([4]; 100L3 (IP), SC 50mg/kg 5 cons.days, 3 months p.i., necropsy 30 days p.t., ref Denham 1978 (Ref. 3)): 100% | Reduction of worm burden [5]: 83% | Reduction of worm burden ([6]; SC 100mg/kg 5 cons. days): 100% | Reduction of worm burden ([6]; per os 150mg/kg 5 cons. days): 70%

COC(=O)Nc1nc2ccc(Sc3ccccc3)cc2[nH]1 [fenbendazole]
activity against adult O. gutturosa [7]: active

COC(=O)Nc1nc2ccc(S(=O)(=O)c3ccccc3)cc2[nH]1 [fenbendazole sulfone]
activity against adult O. gutturosa [7]: active

CCCSc1ccc2nc(NC(=O)OC)[nH]c2c1 [albendazole]
Reduction of worm burden ([2]; SC 100mg/kg 5 cons. days): 100% | Reduction of worm burden ([2]; per os 150mg/kg 5 cons. days): 50% | MTT Reduction (%) ([8]; 1.25 x 10^-5 M): 28% | MTT Reduction (%) ([8]; 3.1 x 10^-6 M): 19% | MTT Reduction (%) ([8]; 5.0 x 10^-5 M): 47% | MTT Reduction (%) ([8]; 7.8 x 10^-7 M): 18% | Reduction of worm burden ([9]; SC 25mg/kg 5 cons. days): 50% | Reduction of worm burden ([9]; SC 50mg/kg 5 cons. days): 100% | Reduction of worm burden ([9]; SC 100mg/kg 5 cons. days): 100% | Reduction of worm burden [10]: 100% | activity against microfilariae compared to oxfendazole [11]: even less active | Reduction of worm burden ([4]; 15Ad (IP), SC 50mg/kg 5 cons. days, necropsy 4-5 weeks p.t., ref Denham 1980 (Ref. 5)): 100% | Reduction of worm burden ([4]; 15Ad (IP), SC 25-12.5mg/kg 5 cons. days, necropsy 4-5 weeks p.t., ref Denham 1980 (Ref. 5)): 80-90% | Reduction of worm burden ([4]; 15Ad (IP), SC 50-25mg/kg 5 cons. days, 4 days p.i., necropsy 5 weeks p.t., ref Surin 1990 (Ref. 11)): 100% | Reduction of worm burden ([4]; 15Ad (IP), SC <6,25mg/kg 5 cons. days, necropsy 4-5 weeks p.t., ref Denham 1980 (Ref. 5)): <30% | Reduction of worm burden ([4]; 50L3 (IP), SC 50-25mg/kg 5 cons. days, 70 days p.i., necropsy 5 weeks p.t., ref Surin 1990 (Ref. 11)): 90% | Motility Reduction (%) ([7]; 1.25 x 10^-5 M, 24 h): 10% | Motility Reduction (%) ([7]; 1.25 x 10^-5 M, 48 h): 12% | Motility Reduction (%) ([7]; 1.25 x 10^-5 M, 72 h): 27% | Motility Reduction (%) ([7]; 1.25 x 10^-5 M, 96 h): 38% | Motility Reduction (%) ([7]; 1.25 x 10^-5 M, 120 h): 40% | Motility Reduction (%) ([7]; 3.1 x 10^-6 M, 24 h): 10% | Motility Reduction (%) ([7]; 3.1 x 10^-6 M, 48 h): 5% | Motility Reduction (%) ([7]; 3.1 x 10^-6 M, 72 h): 16% | Motility Reduction (%) ([7]; 3.1 x 10^-6 M, 96 h): 26% | Motility Reduction (%) ([7]; 3.1 x 10^-6 M, 120 h): 40% | Motility Reduction (%) ([7]; 5.0 x 10^-5 M, 24 h): 10% | Motility Reduction (%) ([7]; 5.0 x 10^-5 M, 48 h): 12% | Motility Reduction (%) ([7]; 5.0 x 10^-5 M, 72 h): 29% | Motility Reduction (%) ([7]; 5.0 x 10^-5 M, 96 h): 40% | Motility Reduction (%) ([7]; 5.0 x 10^-5 M, 120 h): 47% | Motility Reduction (%) ([7]; 7.8 x 10^-7 M, 24 h): 10% | Motility Reduction (%) ([7]; 7.8 x 10^-7 M, 48 h): 9% | Motility Reduction (%) ([7]; 7.8 x 10^-7 M, 72 h): 13% | Motility Reduction (%) ([7]; 7.8 x 10^-7 M, 96 h): 33% | Motility Reduction (%) ([7]; 7.8 x 10^-7 M, 120 h): 33% | Reduction of worm burden ([6]; SC 100mg/kg 5 cons. days): 100% | Reduction of worm burden ([6]; per os 150mg/kg 5 cons. days): 0%

Cl.Cl.NCCS[As](SCCN)c1ccc(Nc2nc(N)nc(N)n2)cc1 [Immiticide, melarsomine dihydrochloride]
MTT Reduction (%) ([8]; 1.25 x 10^-5 M): 91% | MTT Reduction (%) ([8]; 1.9 x 10^-7 M): 51% | MTT Reduction (%) ([8]; 3.1 x 10^-6 M): 94% | MTT Reduction (%) ([8]; 7.8 x 10^-7 M): 79% | effect on microfilariae motility ([11]; concentrations equal or above 3.1·10^−6 M): completely inhibited microfilariae motility | Motility Reduction (%) ([7]; 1.25 x 10^-5 M, 48 h): 100% | Motility Reduction (%) ([7]; 1.25 x 10^-5 M, 72 h): 100% | Motility Reduction (%) ([7]; 1.25 x 10^-5 M, 96 h): 100% | Motility Reduction (%) ([7]; 1.25 x 10^-5 M, 120 h): 100% | Motility Reduction (%) ([7]; 1.9 x 10^-7 M, 24 h): 4% | Motility Reduction (%) ([7]; 1.9 x 10^-7 M, 48 h): 9% | Motility Reduction (%) ([7]; 1.9 x 10^-7 M, 72 h): 33% | Motility Reduction (%) ([7]; 1.9 x 10^-7 M, 96 h): 44% | Motility Reduction (%) ([7]; 1.9 x 10^-7 M, 120 h): 44% | Motility Reduction (%) ([7]; 3.1 x 10^-6 M, 48 h): 100% | Motility Reduction (%) ([7]; 3.1 x 10^-6 M, 72 h): 100% | Motility Reduction (%) ([7]; 3.1 x 10^-6 M, 96 h): 100% | Motility Reduction (%) ([7]; 3.1 x 10^-6 M, 120 h): 100% | Motility Reduction (%) ([7]; 7.8 x 10^-7 M, 24 h): 49% | Motility Reduction (%) ([7]; 7.8 x 10^-7 M, 48 h): 74% | Motility Reduction (%) ([7]; 7.8 x 10^-7 M, 72 h): 93% | Motility Reduction (%) ([7]; 7.8 x 10^-7 M, 120 h): 100%
